Assay results from ChEMBL document CHEMBL1201862, “PubChem BioAssay data set” (2004).
The source made the active and inactive calls.

What was measured:
[1] = target: Intestinal-type alkaline phosphatase (Homo sapiens, UniProt P09923); assay: human intestinal alkaline phosphatase activators, dose response, biochemical, luminescence, uHTS hits (AID 463120); type: functional
[2] = target: Induced myeloid leukemia cell differentiation protein Mcl-1 (Homo sapiens, UniProt Q07820); type: functional
[3] = target: Sphingosine 1-phosphate receptor 2 (Homo sapiens, UniProt O95136); assay: Dose Response Cell Based Assay for Antagonists of the S1P2 Receptor. [Related pubchem assays: 856, 736 ]; type: functional
Hexokinase HKDC1 = target: T1, Hexokinase HKDC1 (Homo sapiens, UniProt Q2TB90); assay: HKDC1 hexokinase inhibitors, dose response, biochemical, W721R variant (AID 504729); type: functional
T1 sequence (Q2TB90 whole entry): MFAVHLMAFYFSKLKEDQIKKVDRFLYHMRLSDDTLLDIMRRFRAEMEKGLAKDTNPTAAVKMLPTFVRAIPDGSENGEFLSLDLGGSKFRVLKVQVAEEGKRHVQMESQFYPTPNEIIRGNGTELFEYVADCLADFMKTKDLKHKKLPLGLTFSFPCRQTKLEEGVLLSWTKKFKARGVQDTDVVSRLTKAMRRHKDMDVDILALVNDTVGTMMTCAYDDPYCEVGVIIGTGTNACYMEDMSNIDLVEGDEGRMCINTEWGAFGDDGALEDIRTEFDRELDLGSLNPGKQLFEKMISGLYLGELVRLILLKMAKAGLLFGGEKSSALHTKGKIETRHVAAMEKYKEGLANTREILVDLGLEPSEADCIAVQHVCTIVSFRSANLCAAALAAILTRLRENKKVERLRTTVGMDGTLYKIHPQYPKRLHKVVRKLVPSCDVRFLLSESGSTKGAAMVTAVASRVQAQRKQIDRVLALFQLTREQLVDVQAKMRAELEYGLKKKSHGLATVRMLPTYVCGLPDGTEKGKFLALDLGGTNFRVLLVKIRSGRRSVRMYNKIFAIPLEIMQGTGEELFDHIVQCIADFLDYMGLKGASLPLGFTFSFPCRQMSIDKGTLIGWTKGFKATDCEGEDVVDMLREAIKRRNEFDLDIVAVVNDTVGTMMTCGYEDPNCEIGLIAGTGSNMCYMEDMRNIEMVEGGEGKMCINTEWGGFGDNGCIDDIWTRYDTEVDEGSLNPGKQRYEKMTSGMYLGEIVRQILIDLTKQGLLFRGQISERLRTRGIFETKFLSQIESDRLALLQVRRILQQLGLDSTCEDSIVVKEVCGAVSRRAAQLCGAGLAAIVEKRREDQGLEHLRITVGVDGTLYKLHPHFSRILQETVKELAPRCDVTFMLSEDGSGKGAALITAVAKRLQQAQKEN

[4] = Luminescence Cell-Based Dose Response HTS to Identify Inhibitors of 5'UTR Stem-Loop Driven Prion Protein mRNA Translation in H4 Neuroglioblastoma Cells. [Related pubchem assays: 1827 (Project Summary), 1813 (Primary HTS)]; type: functional
Integrin alpha-4 = Integrin alpha-4 (Homo sapiens, UniProt P13612); assay: VLA-4 integrin allosteric ligands, SAR follow-up, cell-based, LIBS antibody binding, flow cytometry (AID 488791); type: functional
BJ = assay: cells; type: functional, cell-based; conditions: Homo sapiens
[5] = target: Sphingosine 1-phosphate receptor 4 (Homo sapiens, UniProt O95977); assay: Fluorescence dose response cell-based high throughput screening assay for antagonists of the Sphingosine 1-Phosphate Receptor 4 (S1P4). [Related pubchem assays: 1524 (Confirmation in triplicates.), 1510 (Primary screen.)]; type: functional
[6] = control 3'UTR Renilla luciferase suppression, dose response, counter-screen for Shn3 inhibitor project, cell-based, Clone20-Shn3RL, cherry-picked (AID 624133); type: functional
[7] = HeLa cell cytotoxicity, dose response, cytotoxicity control for MgcRacGAP inhibitor project (AID 624300); type: functional
[8] = target: Multidrug resistance protein CDR2 (Candida albicans (strain SC5314 / ATCC MYA-2876) (Yeast), UniProt P78595); assay: CaCDR2 efflux pump inhibitors in yeast, dose response, S. cerevisiae AD1-8u, singleplex, Cherry Pick1 hits (AID 588604); type: functional
[9] = target: Dual specificity tyrosine-phosphorylation-regulated kinase 3 (Homo sapiens, UniProt O43781); type: functional;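 note: measured as one member of a broad kinase panel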
[10] = target: Mitogen-activated protein kinase 1 (Homo sapiens, UniProt P28482); type: functional
[11] = target: Hepatocyte growth factor receptor (Homo sapiens, UniProt P08581); type: functional;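 note: kinase panel profiling across the kinome, with MET as the panel member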
[12] = target: Testis-specific serine/threonine-protein kinase 1 (Homo sapiens, UniProt Q9BXA7); type: functional
[13] = target: RAC-gamma serine/threonine-protein kinase (Homo sapiens, UniProt Q9Y243); type: functional
[14] = target: Epidermal growth factor receptor (Homo sapiens, UniProt P00533)
[15] = target: Cyclin-dependent kinase 5 (Homo sapiens, UniProt Q00535); type: functional;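 note: CDK5 measured as one member of a kinase profiling panel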
[16] = target: Glycogen synthase kinase-3 alpha (Homo sapiens, UniProt P49840); type: functional;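 note: GSK3A result taken from a broad kinome-wide kinase panel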
[17] = target: Glycogen synthase kinase-3 beta (Homo sapiens, UniProt P49841); type: functional;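 note: value comes from a broad kinome profiling panel, with GSK3B as the panel member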
[18] = target: Serine/threonine-protein kinase PLK3 (Homo sapiens, UniProt Q9H4B4); type: functional
[19] = target: Receptor tyrosine-protein kinase erbB-4 (Homo sapiens, UniProt Q15303); type: functional;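 note: ERBB4 member of a kinome-wide kinase profiling panel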
Sequence of Receptor tyrosine-protein kinase erbB-4 (Q15303 whole entry): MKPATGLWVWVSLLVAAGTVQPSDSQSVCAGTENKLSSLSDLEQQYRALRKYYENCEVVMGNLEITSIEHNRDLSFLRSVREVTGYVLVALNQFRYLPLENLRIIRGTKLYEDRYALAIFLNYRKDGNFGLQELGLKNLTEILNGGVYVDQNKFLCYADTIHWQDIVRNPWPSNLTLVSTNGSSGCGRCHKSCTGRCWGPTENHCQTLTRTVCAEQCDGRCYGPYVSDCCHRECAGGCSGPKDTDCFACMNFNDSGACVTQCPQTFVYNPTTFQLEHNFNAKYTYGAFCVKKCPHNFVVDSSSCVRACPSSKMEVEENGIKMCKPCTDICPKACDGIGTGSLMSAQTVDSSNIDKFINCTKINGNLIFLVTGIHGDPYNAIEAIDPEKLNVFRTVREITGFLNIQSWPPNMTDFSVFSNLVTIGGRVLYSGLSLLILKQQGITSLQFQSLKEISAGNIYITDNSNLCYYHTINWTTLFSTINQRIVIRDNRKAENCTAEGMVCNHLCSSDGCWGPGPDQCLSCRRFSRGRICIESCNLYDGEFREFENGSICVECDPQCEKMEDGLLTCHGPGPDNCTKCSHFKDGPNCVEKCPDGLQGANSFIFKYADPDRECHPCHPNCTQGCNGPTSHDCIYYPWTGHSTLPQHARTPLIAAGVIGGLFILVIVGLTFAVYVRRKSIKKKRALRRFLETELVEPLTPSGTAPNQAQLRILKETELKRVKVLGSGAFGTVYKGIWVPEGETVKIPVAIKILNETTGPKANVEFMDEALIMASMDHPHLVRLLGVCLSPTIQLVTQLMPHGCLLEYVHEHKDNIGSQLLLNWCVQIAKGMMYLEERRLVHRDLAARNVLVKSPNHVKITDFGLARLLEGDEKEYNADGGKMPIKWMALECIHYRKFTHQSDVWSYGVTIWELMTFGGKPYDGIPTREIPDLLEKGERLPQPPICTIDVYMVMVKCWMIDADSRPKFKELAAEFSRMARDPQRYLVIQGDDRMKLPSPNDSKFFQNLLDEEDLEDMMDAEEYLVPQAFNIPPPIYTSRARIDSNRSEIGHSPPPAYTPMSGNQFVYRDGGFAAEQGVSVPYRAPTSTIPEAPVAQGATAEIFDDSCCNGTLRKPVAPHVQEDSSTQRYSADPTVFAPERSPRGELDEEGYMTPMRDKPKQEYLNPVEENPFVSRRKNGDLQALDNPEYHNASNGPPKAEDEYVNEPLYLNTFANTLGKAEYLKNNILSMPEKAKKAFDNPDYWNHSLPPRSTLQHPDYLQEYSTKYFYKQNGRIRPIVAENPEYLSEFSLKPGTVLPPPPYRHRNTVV

[20] = target: Tyrosine-protein kinase ABL1 (Homo sapiens, UniProt P00519); type: functional
[21] = target: Receptor tyrosine-protein kinase erbB-2 (Homo sapiens, UniProt P04626); assay: Navigating the Kinome. Panel member name: ERBB2; type: functional
[22] = target: Dual specificity protein kinase CLK2 (Homo sapiens, UniProt P49760); type: functional
[23] = target: Tyrosine-protein kinase BTK (Homo sapiens, UniProt Q06187); type: functional
Sequence of Tyrosine-protein kinase BTK (Q06187 whole entry): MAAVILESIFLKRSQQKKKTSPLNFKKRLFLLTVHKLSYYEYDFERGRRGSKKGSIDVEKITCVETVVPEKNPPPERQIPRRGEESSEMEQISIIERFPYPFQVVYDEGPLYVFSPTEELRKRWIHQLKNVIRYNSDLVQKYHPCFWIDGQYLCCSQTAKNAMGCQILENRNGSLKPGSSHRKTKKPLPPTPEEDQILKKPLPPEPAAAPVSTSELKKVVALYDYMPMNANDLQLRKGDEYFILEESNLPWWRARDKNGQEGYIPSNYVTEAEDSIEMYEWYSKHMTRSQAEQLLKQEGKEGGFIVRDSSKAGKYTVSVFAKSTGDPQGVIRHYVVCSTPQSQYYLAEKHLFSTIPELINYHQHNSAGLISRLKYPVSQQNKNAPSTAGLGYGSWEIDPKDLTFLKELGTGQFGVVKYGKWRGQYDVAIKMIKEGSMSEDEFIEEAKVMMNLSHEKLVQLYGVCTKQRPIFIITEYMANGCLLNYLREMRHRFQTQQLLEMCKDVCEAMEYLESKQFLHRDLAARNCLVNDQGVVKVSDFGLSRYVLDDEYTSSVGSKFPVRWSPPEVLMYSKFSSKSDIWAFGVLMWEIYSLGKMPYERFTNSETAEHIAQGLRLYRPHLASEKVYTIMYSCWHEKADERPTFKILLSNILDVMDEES

[24] = target: MAP kinase-activated protein kinase 5 (Homo sapiens, UniProt Q8IW41); type: functional;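 note: measured as one member of a kinome panel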
Sequence of MAP kinase-activated protein kinase 5 (Q8IW41 whole entry): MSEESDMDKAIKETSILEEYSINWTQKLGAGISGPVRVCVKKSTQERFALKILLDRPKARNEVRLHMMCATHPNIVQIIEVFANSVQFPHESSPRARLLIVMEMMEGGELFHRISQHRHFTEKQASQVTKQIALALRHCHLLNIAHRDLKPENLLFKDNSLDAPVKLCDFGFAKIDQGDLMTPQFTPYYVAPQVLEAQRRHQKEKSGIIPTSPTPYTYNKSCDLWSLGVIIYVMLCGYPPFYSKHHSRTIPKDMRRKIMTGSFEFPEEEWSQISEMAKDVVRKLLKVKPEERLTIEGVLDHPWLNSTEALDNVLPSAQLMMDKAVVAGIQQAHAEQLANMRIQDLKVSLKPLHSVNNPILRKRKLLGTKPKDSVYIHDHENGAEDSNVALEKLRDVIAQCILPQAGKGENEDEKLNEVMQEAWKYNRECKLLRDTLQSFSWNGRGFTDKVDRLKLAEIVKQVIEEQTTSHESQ

[25] = target: Serine/threonine-protein kinase MRCK alpha (Homo sapiens, UniProt Q5VT25); type: functional
Sequence of Serine/threonine-protein kinase MRCK alpha (Q5VT25 whole entry): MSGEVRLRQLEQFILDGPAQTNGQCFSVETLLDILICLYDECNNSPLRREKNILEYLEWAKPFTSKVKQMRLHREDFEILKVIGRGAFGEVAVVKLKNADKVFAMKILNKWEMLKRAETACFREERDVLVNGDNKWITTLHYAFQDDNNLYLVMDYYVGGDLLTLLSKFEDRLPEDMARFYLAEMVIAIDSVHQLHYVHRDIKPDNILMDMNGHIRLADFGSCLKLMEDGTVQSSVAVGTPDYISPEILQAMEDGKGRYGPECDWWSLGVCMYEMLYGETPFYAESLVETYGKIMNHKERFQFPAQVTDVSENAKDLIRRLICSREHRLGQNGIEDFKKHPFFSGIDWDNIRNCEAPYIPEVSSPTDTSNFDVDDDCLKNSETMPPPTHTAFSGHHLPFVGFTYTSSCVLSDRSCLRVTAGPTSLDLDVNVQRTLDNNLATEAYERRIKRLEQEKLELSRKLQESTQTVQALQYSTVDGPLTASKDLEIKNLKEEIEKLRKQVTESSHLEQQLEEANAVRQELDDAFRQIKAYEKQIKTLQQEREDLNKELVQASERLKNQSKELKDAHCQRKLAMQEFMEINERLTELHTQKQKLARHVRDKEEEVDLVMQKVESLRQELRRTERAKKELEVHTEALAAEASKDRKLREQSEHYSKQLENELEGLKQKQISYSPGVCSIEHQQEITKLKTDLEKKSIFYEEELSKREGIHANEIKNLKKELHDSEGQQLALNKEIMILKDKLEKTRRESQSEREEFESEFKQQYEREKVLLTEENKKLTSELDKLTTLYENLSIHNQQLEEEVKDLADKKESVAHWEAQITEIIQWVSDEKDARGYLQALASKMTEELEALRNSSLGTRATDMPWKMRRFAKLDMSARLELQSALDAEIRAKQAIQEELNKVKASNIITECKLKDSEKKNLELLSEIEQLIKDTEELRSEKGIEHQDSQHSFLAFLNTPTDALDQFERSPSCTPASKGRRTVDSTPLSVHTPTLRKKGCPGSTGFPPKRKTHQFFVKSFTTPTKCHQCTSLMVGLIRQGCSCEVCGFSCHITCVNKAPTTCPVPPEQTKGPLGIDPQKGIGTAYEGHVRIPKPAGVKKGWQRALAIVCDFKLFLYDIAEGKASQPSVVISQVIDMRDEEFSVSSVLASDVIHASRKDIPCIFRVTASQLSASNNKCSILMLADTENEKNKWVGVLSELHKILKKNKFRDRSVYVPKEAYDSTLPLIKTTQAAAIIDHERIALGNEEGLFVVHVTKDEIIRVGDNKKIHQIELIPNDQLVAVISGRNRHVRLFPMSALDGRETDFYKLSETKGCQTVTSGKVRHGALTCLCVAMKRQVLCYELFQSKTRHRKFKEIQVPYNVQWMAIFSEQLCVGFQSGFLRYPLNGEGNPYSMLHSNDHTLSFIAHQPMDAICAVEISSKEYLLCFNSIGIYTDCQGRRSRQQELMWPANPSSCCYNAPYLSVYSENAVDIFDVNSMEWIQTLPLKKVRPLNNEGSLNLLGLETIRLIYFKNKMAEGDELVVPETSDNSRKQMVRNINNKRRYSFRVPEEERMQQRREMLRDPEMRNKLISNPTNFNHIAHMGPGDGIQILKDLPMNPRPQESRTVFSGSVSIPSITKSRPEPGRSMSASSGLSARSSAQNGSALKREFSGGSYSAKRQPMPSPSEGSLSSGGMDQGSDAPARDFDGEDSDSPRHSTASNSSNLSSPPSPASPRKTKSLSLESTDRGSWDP

[26] = target: Serine/threonine-protein kinase 17A (Homo sapiens, UniProt Q9UEE5); type: functional
[27] = target: Mitogen-activated protein kinase 8 (Homo sapiens, UniProt P45983); type: functional;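 note: value comes from one member of a kinome-wide kinase profiling panel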
[28] = Luminescence Cell-Based Dose Retest to Confirm Inhibitors of Cancer Stem Cells. [Related pubchem assays (depositor defined):AID2717, AID2721]; type: functional; conditions: Homo sapiens

Sequence of Induced myeloid leukemia cell differentiation protein Mcl-1 (Q07820 whole entry): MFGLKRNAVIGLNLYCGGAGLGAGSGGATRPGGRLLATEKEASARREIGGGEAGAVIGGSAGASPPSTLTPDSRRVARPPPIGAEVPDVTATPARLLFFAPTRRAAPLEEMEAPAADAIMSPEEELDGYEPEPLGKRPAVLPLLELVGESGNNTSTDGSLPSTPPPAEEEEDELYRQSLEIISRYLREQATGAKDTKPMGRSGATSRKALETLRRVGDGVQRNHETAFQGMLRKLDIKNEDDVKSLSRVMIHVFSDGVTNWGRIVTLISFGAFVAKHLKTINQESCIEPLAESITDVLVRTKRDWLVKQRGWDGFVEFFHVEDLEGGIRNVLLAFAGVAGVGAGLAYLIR
Sequence of Intestinal-type alkaline phosphatase (P09923 whole entry): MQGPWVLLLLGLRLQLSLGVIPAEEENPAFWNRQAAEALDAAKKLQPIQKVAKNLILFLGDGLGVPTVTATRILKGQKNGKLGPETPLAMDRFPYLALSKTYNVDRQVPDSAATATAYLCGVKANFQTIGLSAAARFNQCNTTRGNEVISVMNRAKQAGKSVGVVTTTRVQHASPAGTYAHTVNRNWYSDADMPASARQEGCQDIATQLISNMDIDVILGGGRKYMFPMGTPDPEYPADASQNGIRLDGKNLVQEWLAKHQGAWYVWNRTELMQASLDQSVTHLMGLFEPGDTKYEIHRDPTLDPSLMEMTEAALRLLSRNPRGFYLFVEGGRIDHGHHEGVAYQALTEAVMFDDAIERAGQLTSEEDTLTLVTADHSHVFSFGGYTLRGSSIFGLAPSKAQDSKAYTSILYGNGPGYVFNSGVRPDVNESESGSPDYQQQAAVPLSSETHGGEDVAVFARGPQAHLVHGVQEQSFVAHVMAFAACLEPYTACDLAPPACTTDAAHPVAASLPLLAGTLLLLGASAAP

O=C(NN1C(=O)CSC1=S)C(=O)NN1C(=O)CSC1=S
EC50 [1]: 9.21 µM (active)

O=C1NC(=S)S/C1=C\C=C\c1ccc([N+](=O)[O-])o1
IC50 [2]: 1.92 µM (active)

COC(=O)C1CN(C#N)N(c2ccc(Cl)cc2)C12c1ccccc1-c1ccccc12 (stereo unspecified)
IC50 [3]: 2.79 µM (active) | IC50 (Hexokinase HKDC1): 3.81 µM (active) | EC50 [4]: 10.1 µM (active) | EC50 (Integrin alpha-4): 18.9 µM (active) | EC50 (BJ): 2.9 µM (active) | IC50 [5]: 0.313 µM (active) | AC50 [6]: 3 µM (active)

Cc1ccc2[nH]c(/C(C#N)=C/c3ccc(O)c(O)c3)nc2c1
CC50 [7]: 100 µM (active) | EC50 [8]: 2.17 µM (active)

Nc1noc2cccc(-c3cccc(O)c3)c12
Ki [9]: > 6.31 µM (inactive) | Ki [10]: > 7.94 µM (inactive) | Ki [11]: > 12.6 µM (inactive) | Ki [12]: > 1.58 µM (inactive) | Ki [13]: > 10 µM (inactive) | Ki [14]: > 2 µM (inactive) | Ki [15]: > 6.31 µM (inactive) | Ki [16]: > 50.1 µM (inactive) | Ki [17]: > 50.1 µM (inactive) | Ki [18]: > 7.94 µM (inactive) | Ki [19]: > 3.98 µM (inactive) | Ki [20]: > 1 µM (inactive) | Ki [21]: > 1.58 µM (inactive) | Ki [22]: > 20 µM (inactive) | Ki [23]: > 39.8 µM (inactive) | Ki [24]: > 1.58 µM (inactive) | Ki [25]: > 10 µM (inactive) | Ki [26]: > 3.98 µM (inactive) | Ki [27]: > 25.1 µM (inactive)

CN(C)S(=O)(=O)Oc1cccc(C(=O)Nc2ccc(Cl)c(Cl)c2)c1
AC50 [28]: 8.64 µM (active)
